The source made the active and inactive calls.
What was measured:
[1] = biological target: T1, Alkaline phosphatase, tissue-nonspecific isozyme (Homo sapiens, UniProt P05186); assay: potency against alkaline phosphatase TNAP – biochemical, luminescent, dose response, SAR follow-up (AID 1056)
T1 sequence (P05186 whole entry): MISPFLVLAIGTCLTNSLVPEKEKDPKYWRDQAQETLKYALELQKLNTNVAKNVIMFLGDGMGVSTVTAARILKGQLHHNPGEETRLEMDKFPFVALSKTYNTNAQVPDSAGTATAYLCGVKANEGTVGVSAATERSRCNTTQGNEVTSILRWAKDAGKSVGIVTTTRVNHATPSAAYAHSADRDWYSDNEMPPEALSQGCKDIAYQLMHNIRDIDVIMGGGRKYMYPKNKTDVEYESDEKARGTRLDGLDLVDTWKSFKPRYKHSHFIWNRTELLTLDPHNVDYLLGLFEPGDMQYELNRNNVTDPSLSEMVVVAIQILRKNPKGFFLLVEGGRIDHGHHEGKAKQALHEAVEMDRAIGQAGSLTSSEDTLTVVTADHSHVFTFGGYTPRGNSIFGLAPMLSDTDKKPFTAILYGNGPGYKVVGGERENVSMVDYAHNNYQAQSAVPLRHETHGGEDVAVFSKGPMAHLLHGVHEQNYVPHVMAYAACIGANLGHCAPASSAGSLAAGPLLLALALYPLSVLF

[2] = biological target: Alkaline phosphatase, placental type (Homo sapiens, UniProt P05187); assay: human placental alkaline phosphatase inhibition – biochemical, luminescence, confirmation (AID 1512); type: functional
Chain of Alkaline phosphatase, placental type (P05187 whole entry): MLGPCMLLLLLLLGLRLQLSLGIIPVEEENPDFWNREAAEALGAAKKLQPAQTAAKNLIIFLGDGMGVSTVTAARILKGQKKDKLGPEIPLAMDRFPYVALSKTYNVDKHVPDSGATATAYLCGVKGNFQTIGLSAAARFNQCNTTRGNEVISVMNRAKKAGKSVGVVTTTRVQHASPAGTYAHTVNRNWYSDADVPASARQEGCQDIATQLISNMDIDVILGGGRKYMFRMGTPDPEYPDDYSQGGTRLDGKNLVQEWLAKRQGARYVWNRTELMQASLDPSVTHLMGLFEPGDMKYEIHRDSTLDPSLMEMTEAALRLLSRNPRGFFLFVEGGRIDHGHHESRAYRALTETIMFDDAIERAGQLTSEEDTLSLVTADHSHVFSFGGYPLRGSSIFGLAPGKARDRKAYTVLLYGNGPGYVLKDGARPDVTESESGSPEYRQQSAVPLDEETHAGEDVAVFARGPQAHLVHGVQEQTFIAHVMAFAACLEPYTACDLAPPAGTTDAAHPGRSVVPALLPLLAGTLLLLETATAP

[3] = biological target: Glyceraldehyde-3-phosphate dehydrogenase (Homo sapiens, UniProt P04406)
Chain of Glyceraldehyde-3-phosphate dehydrogenase (P04406 whole entry): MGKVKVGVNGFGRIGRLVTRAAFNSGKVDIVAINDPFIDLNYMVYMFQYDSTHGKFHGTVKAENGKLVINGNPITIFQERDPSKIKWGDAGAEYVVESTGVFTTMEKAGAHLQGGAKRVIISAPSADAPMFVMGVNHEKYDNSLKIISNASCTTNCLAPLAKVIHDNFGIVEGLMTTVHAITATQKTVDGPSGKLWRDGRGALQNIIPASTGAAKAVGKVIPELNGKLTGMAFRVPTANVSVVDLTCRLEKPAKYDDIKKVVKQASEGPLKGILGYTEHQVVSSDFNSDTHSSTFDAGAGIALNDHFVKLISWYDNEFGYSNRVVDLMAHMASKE

[4] = biological target: T2, Orexin/Hypocretin receptor type 1 (Homo sapiens, UniProt O43613); assay: Homogeneous Time Resolved Fluorescence (HTRF)-based cell-based high throughput dose response assay for antagonists of the orexin 1 receptor (OX1R; HCRTR1). [Related pubchem assays (depositor defined):AID434989, AID435008, AID463079, AID485270, AID492963, AID492964, AID492965, AID493232, AID504717, AID504718]; type: functional
T2 sequence (O43613 whole entry): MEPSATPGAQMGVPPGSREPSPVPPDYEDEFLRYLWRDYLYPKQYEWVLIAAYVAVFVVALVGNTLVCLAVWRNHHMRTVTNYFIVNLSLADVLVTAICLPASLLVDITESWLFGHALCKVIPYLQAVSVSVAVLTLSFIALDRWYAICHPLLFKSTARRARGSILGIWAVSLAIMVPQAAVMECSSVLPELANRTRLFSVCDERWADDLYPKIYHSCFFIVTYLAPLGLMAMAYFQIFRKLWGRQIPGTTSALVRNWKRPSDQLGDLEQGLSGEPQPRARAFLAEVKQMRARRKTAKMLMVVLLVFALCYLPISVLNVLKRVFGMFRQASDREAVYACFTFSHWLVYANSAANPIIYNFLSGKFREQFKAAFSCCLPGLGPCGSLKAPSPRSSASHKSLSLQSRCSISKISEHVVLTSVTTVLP

[5] = biological target: T3, Protein RecA (Mycobacterium tuberculosis, UniProt P9WHJ3); assay: Fluorescence Cell-Free Homogeneous Dose Retest to Identify Inhibitors of RecA-Intein Splicing Activity. [Related pubchem assays (depositor defined):AID2097, AID2223, AID489010, AID492950]; type: functional
T3 sequence (P9WHJ3 whole entry): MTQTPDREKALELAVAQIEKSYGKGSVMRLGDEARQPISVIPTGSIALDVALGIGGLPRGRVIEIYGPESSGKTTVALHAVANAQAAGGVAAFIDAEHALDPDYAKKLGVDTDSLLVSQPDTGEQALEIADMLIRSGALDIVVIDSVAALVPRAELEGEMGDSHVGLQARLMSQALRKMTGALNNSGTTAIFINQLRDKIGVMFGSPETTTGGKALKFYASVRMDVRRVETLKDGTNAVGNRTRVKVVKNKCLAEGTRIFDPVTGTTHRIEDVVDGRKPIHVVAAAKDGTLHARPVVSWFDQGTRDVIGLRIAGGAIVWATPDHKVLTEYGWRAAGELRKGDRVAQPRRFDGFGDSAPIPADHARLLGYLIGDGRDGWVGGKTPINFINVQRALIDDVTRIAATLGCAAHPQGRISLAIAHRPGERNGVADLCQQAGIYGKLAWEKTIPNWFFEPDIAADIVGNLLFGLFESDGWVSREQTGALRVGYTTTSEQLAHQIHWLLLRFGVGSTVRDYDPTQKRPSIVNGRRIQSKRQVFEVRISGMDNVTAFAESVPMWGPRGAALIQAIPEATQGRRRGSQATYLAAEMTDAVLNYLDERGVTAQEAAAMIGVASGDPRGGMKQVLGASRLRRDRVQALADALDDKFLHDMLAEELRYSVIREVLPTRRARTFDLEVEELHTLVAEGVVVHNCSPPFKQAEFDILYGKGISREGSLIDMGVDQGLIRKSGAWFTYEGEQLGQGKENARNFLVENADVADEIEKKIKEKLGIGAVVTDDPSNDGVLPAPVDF

[6] = tested on: CHO-K1; assay: (§1) Counterscreen for antagonists of the orexin 1 receptor (OX1R; HCRTR1): Homogeneous time resolved fluorescence (HTRF)-based cell-based dose response assay to identify antagonists of the parental CHO-K1 cell line. [Related pubchem assays (depositor defined):AID434989, AID435008, AID463079, AID485270, AID492963, AID492964, AID492965, AID493232, AID504699, AID504701]; type: functional; settings: Cricetulus griseus
[7] = biological target: T4, Replicative DNA helicase DnaB (Mycobacterium tuberculosis, UniProt P9WMR3); assay: DnaB intein splicing inhibitors, dose response, biochemical, cell-free fluorescence (AID 449749); type: functional
T4 sequence (P9WMR3 whole entry): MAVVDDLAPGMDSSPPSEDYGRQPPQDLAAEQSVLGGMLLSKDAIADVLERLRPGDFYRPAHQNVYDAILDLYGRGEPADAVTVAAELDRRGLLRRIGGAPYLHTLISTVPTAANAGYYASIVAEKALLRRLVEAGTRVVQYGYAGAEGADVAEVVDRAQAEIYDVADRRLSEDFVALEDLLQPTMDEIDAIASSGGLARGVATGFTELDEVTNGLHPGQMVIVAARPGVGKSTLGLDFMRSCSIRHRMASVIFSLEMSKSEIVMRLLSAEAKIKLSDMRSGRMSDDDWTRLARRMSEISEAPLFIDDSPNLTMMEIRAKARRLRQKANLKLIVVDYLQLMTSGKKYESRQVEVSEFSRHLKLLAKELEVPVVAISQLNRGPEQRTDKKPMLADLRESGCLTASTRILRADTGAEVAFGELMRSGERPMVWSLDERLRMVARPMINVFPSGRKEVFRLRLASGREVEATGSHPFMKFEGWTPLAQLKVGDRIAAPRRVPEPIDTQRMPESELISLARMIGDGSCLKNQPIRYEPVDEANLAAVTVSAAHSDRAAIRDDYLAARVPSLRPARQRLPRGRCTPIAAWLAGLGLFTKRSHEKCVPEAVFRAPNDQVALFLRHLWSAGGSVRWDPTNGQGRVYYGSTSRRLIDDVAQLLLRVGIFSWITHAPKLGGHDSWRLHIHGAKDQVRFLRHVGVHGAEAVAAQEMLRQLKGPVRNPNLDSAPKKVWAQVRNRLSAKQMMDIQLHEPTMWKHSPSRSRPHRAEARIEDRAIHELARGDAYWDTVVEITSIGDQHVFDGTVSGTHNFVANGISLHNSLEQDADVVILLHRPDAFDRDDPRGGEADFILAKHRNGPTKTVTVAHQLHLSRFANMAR

[8] = as §1, with “Fluorescence-based” for “Homogeneous time resolved fluorescence (HTRF)-based”, “cell-based high throughput” for “cell-based”, “CHO” for “CHO-K1”; type: functional
[9] = biological target: T2, Orexin/Hypocretin receptor type 1; assay: Fluorescence-based cell-based high throughput dose response assay for antagonists of the orexin 1 receptor (OX1R; HCRTR1). [Related pubchem assays (depositor defined):AID434989, AID435008, AID463079, AID485270, AID492963, AID492964, AID492965, AID493232, AID504717, AID504718]; type: functional
[10] = biological target: Intestinal-type alkaline phosphatase (Homo sapiens, UniProt P09923); assay: human intestinal alkaline phosphatase activators, dose response, biochemical, luminescence, uHTS hits (AID 463120); type: functional
[11] = biological target: T5, Heat shock factor protein 1 (Mus musculus, UniProt P38532); assay: enhancement of HSF1-driven luciferase signal – cell-based, NIH3T3, luminescence, dose retest, confirmation (AID 435004); type: functional;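 note: stress induced by proteasome inhibitor MG132 added 30 min after compound; luciferase reporter driven by HSF1 response element in NIH3T3 cells; actives raise luminescence as potentiators of the MG132 stress response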
T5 sequence (P38532 whole entry): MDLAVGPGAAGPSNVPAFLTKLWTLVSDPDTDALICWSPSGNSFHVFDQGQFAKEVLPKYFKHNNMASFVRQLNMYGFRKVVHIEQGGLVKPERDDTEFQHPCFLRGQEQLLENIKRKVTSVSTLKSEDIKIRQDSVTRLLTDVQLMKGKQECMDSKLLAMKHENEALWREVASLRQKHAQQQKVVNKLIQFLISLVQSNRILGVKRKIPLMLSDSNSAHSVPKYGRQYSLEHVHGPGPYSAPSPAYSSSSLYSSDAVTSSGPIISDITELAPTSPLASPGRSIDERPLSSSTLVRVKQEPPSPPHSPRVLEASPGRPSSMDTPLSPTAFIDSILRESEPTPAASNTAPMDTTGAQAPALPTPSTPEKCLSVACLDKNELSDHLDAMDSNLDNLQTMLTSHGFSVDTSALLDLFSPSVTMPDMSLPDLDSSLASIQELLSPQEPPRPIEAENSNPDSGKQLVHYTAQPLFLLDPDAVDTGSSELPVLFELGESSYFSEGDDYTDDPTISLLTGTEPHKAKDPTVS

[12] = Intein inhibitors as potential Tuberculosis drugs, a cytotoxicity screen. [Related pubchem assays (depositor defined):AID2221, AID2223, AID434968, AID435010, AID449749, AID449750, AID489010]; type: functional
[13] = fluconazole-exposed Candida albicans growth modulators – fluorescence, retest, confirmation (AID 2467); type: functional, cell-based
[14] = NIH-3T3 fibroblast cytotoxicity, dose response, cytotoxicity control, cell-based, fluorescence, Alamar Blue, secondary assay (AID 2327); type: functional;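 note: NIH-3T3 mouse fibroblasts cultured with fluconazole at 8 µg/mL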
[15] = biological target: T6, Voltage-gated N-type calcium channel alpha-1B subunit/Amyloid beta A4 precursor protein-binding family A member 1 (Homo sapiens, UniProt Q00975+Q02410); type: protein assay
T6 sequence (Q00975 whole entry): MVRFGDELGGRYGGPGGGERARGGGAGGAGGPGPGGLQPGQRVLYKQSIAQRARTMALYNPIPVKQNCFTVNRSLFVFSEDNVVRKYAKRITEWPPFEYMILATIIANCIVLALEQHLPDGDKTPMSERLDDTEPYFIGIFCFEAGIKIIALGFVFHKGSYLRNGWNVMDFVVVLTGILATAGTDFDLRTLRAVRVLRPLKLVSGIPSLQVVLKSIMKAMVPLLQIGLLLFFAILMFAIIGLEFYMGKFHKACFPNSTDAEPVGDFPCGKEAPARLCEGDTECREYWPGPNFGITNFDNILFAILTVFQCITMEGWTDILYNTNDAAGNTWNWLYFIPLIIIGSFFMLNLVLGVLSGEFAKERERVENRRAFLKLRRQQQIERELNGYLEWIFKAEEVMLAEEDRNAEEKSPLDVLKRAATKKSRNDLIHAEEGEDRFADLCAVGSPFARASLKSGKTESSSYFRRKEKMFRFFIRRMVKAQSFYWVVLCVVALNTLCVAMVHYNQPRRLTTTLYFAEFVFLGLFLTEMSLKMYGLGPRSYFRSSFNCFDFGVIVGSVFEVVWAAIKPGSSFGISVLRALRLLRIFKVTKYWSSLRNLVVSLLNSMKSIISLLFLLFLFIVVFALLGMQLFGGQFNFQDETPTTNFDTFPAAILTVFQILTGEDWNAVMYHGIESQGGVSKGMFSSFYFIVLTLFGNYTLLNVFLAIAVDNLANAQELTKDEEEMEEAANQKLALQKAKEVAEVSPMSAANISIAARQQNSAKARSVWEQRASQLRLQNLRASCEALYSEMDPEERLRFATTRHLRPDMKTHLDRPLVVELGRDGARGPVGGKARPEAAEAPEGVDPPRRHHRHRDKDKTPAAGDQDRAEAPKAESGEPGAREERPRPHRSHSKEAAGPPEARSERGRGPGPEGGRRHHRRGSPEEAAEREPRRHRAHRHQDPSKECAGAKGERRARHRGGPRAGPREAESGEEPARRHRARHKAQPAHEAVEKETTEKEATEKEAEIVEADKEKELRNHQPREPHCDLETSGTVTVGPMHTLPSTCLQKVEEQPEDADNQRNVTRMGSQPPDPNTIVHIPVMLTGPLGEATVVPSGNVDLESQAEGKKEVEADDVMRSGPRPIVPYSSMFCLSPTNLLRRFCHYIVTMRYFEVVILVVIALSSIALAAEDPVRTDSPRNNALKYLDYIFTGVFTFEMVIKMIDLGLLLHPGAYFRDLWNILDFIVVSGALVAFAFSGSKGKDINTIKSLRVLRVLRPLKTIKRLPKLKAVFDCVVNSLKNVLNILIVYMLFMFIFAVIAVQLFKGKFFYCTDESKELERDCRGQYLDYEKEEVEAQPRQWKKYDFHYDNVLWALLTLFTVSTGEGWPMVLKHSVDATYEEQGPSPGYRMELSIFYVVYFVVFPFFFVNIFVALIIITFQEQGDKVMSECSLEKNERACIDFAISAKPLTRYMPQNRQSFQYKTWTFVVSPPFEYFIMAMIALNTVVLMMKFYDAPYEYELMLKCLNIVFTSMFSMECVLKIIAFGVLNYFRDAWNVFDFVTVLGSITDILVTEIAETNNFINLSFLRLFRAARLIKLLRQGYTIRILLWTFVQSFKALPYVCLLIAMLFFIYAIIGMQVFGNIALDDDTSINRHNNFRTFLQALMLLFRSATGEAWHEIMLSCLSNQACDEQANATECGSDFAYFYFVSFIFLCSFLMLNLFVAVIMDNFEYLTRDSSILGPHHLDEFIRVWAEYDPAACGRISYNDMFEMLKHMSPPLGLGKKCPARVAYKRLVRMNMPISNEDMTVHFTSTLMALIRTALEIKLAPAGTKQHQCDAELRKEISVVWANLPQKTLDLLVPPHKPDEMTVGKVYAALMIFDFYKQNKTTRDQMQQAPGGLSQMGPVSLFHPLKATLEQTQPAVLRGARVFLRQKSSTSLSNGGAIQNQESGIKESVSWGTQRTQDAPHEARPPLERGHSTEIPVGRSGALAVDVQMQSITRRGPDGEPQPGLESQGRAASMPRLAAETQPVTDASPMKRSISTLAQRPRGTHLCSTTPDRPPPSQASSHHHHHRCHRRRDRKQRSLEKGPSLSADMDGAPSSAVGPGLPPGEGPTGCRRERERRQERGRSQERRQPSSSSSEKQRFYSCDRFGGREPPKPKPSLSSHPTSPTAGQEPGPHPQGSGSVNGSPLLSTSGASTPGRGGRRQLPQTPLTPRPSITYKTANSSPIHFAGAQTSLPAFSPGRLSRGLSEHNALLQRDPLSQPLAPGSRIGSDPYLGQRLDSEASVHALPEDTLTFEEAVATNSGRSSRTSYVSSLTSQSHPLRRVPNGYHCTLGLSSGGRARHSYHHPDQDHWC
T6 sequence (Q02410 whole entry): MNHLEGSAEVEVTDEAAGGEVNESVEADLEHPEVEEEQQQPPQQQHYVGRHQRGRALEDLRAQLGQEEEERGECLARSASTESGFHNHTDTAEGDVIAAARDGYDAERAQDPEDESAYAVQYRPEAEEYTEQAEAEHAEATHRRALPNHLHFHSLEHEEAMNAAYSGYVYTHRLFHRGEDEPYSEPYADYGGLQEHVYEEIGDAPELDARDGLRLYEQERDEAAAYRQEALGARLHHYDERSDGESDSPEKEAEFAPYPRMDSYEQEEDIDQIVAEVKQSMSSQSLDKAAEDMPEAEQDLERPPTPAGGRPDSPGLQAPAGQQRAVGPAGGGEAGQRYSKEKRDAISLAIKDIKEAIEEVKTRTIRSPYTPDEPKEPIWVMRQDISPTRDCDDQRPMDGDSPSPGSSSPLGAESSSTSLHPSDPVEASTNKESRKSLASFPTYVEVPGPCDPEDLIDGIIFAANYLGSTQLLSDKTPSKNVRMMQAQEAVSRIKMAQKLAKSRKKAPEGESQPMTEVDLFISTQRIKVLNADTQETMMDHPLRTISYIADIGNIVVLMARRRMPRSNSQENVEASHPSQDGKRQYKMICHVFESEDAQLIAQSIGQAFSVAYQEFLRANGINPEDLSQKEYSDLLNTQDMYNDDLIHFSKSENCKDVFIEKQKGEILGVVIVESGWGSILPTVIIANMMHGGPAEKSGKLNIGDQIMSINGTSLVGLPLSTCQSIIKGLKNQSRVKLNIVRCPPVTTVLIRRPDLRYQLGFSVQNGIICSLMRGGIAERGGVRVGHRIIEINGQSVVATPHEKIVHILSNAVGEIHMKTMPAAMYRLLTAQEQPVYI

[16] = biological target: Eukaryotic translation initiation factor 4H (Homo sapiens, UniProt Q15056); assay: eIF4H binding inhibition – biochemical, uHTS, fluorescence polarization, translation initiation inhibitor project, primary screen (AID 2012)
[17] = biological target: T7, Long-chain-fatty-acid--AMP ligase FadD28 (Mycobacterium tuberculosis, UniProt P9WQ59); assay: Fluorescence polarization aasay to screen for inhibitors that compete for the binding of FadD28 to a bisubstrate Measured in Biochemical System Using Plate Reader - 2147-01_Inhibitor_Dose_CherryPick_Activity.; type: functional, Mycobacterium tuberculosis H37Rv
T7 sequence (P9WQ59 whole entry): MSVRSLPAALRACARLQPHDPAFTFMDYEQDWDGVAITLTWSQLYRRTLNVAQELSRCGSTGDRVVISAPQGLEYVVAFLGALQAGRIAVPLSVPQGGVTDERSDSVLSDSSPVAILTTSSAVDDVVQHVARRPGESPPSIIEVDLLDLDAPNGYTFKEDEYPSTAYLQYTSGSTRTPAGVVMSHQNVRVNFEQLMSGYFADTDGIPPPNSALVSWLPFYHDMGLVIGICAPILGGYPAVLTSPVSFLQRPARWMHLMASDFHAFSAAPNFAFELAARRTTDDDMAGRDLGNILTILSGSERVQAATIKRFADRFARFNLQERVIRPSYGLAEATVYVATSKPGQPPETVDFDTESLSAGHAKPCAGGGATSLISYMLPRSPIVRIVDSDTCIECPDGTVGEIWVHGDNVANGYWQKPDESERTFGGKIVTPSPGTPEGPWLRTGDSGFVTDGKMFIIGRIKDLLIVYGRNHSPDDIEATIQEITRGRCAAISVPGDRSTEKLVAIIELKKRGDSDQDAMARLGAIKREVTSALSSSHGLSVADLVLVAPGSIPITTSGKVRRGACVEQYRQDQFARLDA

[18] = biological target: T6, Voltage-gated N-type calcium channel alpha-1B subunit/Amyloid beta A4 precursor protein-binding family A member 1; type: protein assay; remark: listed apart in the source
[19] = biological target: Polyadenylate-binding protein 1 (Homo sapiens, UniProt P11940); assay: blockers of PABP interaction with poly(A) – biochemical, fluorescence polarization, […] (AID 2014)
Chain of Polyadenylate-binding protein 1 (P11940 whole entry): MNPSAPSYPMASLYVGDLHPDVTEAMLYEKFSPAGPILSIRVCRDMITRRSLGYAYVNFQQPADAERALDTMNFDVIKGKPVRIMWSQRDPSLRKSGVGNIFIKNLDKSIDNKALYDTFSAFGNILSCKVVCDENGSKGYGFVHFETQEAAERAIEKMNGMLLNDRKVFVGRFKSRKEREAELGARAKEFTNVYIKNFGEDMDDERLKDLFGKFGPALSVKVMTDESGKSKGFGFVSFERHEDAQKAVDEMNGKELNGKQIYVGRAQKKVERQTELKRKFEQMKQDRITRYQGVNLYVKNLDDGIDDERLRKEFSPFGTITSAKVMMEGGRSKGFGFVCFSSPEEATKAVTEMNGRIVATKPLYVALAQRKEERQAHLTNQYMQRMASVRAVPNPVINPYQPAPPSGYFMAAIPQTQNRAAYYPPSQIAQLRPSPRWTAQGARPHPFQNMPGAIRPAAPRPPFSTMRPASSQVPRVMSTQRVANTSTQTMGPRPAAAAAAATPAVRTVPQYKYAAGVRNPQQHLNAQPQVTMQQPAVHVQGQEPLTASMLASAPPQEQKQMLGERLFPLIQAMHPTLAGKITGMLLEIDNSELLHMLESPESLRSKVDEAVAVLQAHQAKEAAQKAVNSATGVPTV
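Throughout, for CC50: cells exposed to compound for 72 hours before luminescence readout.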

SMILES: CC1(C)CC(=O)c2c(n[nH]c2Cc2ccccc2)C1
- IC50 [1]: 1.24 µM (active)
- IC50 [2]: > 100 µM (inactive)
- IC50 [3]: > 100 µM (not active)

SMILES: Cc1ccc(/C=C2\Sc3ccccc3C2=O)s1
- IC50 [4]: 23.1 µM (inactive)
- EC50 [5]: 4.87 µM (active)
- IC50 [6]: > 66.2 µM (inactive)
- AC50 [7]: 11.8 µM (active)
- IC50 [8]: > 49.7 µM (inactive)
- IC50 [9]: 22.5 µM (inactive)

SMILES: Cc1ccc(NC(=O)C2CC(=O)Nc3nc4ccccc4n32)c(C)c1 (centres undefined)
- EC50 [10]: 34.5 µM (active)

SMILES: Cc1ccc(Sc2ccc(NC(=O)CCl)cc2)c(C)c1
- EC50 [5]: 0.718 µM (active)
- AC50 [7]: 2.5 µM (active)
- EC50 [11]: 9.67 µM (active)
- CC50 [12]: 9.81 µM (active)

SMILES: N#Cc1ccc(-n2c(-c3ccccc3)nnc2-c2ccccc2)cc1C#N
- EC50 [5]: 3.36 µM (active)
- AC50 [7]: 3.83 µM (active)
- CC50 [12]: > 40 µM (active)

SMILES: NC(=S)n1[nH]c(-c2ccc([N+](=O)[O-])cc2)c(/N=N/c2cccc([N+](=O)[O-])c2)c1=O
- EC50 [13]: 11.6 µM (active)
- EC50 [14]: > 150 µM (inactive)
- IC50 [15]: 4 µM (active)
- IC50 [16]: 2.66 µM (active)
- AC50 [17]: 15.5 µM (active)
- IC50 [18]: > 50 µM (inactive)
- IC50 [19]: 42.5 µM (active)
